Values quoted from earlier work as cited in patent US6733789B1 (Biovail Laboratories, Inc., priority 1999, dated 2004).

- peak plasma concentration (after a 10 mg dose, oral): 40 ng/mL
- dependence of pharmacokinetic properties on age or dose (dose range 2.5-100 mg): not dependent on age or dose
- excreted unchanged in the urine (in vivo): About 50%
- mean plasma half life (in vivo): 10 to 12 h
- pre-systemic metabolism (oral administration): below 10%
- time to peak plasma concentrations (oral administration): three
- biotransformed in the liver (subsequent elimination of inactive metabolites via the kidneys): 50%
Structure (SMILES): CC(C)NCC(O)COc1ccc(COCCOC(C)C)cc1 (stereo not drawn) [bisoprolol]
- effect of food on peak plasma concentrations (concomitant food intake or fasting): appear not to be affected by concomitant food intake or fasting
- adverse effects (spontaneously mentioned by patients treated with bisoprolol): Dizziness, headache and tiredness are the most frequent adverse effects
